One block for each molecule: values may come before it.
Tests used:
PDE2 = target: T1, PDE2 (Bos taurus, UniProt P14099); experiment: PDE assay, PDE2 enzyme solution from bovine adrenal gland; type: biochemical, Japanese Black Cattle
T1 construct: tissue Tokyo Shibaura Zoki; host or cells: bovine adrenal gland, soluble fraction, ion-exchange fractions
T1 sequence (P14099 1-921): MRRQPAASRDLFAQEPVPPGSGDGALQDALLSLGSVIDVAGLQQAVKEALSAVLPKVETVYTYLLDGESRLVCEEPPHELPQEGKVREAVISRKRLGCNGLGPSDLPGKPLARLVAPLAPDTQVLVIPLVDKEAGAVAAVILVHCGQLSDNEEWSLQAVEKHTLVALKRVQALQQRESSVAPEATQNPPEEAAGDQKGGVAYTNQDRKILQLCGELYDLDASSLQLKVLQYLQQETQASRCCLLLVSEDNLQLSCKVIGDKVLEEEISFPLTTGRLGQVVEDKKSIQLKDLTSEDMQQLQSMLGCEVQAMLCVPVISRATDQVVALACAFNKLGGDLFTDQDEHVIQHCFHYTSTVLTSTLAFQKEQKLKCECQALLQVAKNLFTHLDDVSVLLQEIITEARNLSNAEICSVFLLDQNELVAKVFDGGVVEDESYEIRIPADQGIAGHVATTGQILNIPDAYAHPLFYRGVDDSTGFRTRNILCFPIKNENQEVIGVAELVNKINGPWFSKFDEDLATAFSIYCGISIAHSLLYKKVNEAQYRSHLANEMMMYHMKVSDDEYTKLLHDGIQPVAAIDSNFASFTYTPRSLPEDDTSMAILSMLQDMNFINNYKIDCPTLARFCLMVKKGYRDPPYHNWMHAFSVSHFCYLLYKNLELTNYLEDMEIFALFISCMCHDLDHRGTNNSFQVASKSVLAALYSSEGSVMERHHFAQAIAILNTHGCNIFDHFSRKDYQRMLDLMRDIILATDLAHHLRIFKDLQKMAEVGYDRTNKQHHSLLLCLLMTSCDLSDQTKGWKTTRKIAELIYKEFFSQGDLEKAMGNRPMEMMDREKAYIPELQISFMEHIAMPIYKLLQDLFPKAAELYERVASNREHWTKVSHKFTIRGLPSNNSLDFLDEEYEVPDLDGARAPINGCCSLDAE
Protocol: One adrenal gland of Japanese Black Cattle, purchased from Tokyo Shibaura Zoki, co., Ltd. was washed with 100 ml of ice-cold saline (0.9% sodium chloride) twice. Subsequently, the tissues were cut into about 1 gram, and it was frozen by liquid nitrogen. To about 2 g of this tissue sample was added 10 ml of an ice-cold homogenization buffer II (25 mM Tris-HCl, pH 7.5, 4 mM magnesium chloride, 0.5 mM EGTA, 2 mM dithiothreitol, 4 mM benzamidine, 0.1 mM phenylmethylsulfonyl fluoride), and the homogenate that was homogenized by Polytron homogenizer for 3 minutes was centrifuged at 8000 rpm, at 4° C. for 20 minutes, and the obtained supernatant was further centrifuged by an ultracentrifuge at 50000 rpm, at 4° C. for 60 minutes. The resultant supernatant was stored at 4° C.
(§1) This supernatant was applied to chromatography under the FPLC system, in the same manner as in Example 1 (1) above. […]
Subsequently, the eluted fractions were used as an enzyme solution for PDE assay, and cGMP-hydrolyzing activity was measured. Or, cAMP-hydrolyzing activity was measured for respective fractions, in the presence or absence of unlabeled cGMP. […]

PDE1 = experiment: PDE assay, PDE1 enzyme solution from rat ventricle; type: biochemical, SD rat; conditions: E4021 100 nM
Protocol: Ventricle was excised from SD rat anesthetized with sodium pentobarbital (Nihon SLC, about 300 g), and washed with 100 ml of ice-cold saline 3 times. After the tissues were cut in approximately 1 g, it was frozen by liquid nitrogen, and stored at −80° C.
To about 5 g of this tissue sample was added 16 ml of an ice-cold homogenization buffer I, and the resultant mixture was homogenized by Polytron homogenizer for 3 minutes. The homogenate was centrifuged at 8000 rpm, at 4° C. for 20 minutes, and the obtained supernatant was further centrifuged by an ultracentrifuge at 50000 rpm, at 4° C. for 60 minutes. The resultant supernatant was stored at 4° C. […]
Subsequently, the eluted fractions were used as an enzyme solution for PDE assay. […] (final concentration of 1 mM) or calcium chloride (final concentration of 2 mM) and calmodulin (40 unit s/ml), and cGMP-hydrolyzing activity was measured.
For these PDE1 containing fractions, cGMP hydrolyzing activities were analyzed in the presence of E4021 (100 nM), PDE5 specific inhibitor, it was shown that the cGMP-hydrolyzing activities in these fractions were not inhibited by E4021. […]
Further, in the presence or absence of unlabeled cGMP, cAMP-PDE activities were measured for each of the fractions. […]
Still further, in the presence of rolipram (10 μm), the PDE4 specific inhibitor, cAMP hydrolyzing activities were measured for each of the fractions. […]

PDE3 = target: T2, PDE3 (Canis lupus familiaris, UniProt A0A8I3NYE0); experiment: PDE assay, PDE3 enzyme solution from dog ventricle; type: biochemical, mixed-breed dog
T2 sequence (A0A8I3NYE0 1-1135): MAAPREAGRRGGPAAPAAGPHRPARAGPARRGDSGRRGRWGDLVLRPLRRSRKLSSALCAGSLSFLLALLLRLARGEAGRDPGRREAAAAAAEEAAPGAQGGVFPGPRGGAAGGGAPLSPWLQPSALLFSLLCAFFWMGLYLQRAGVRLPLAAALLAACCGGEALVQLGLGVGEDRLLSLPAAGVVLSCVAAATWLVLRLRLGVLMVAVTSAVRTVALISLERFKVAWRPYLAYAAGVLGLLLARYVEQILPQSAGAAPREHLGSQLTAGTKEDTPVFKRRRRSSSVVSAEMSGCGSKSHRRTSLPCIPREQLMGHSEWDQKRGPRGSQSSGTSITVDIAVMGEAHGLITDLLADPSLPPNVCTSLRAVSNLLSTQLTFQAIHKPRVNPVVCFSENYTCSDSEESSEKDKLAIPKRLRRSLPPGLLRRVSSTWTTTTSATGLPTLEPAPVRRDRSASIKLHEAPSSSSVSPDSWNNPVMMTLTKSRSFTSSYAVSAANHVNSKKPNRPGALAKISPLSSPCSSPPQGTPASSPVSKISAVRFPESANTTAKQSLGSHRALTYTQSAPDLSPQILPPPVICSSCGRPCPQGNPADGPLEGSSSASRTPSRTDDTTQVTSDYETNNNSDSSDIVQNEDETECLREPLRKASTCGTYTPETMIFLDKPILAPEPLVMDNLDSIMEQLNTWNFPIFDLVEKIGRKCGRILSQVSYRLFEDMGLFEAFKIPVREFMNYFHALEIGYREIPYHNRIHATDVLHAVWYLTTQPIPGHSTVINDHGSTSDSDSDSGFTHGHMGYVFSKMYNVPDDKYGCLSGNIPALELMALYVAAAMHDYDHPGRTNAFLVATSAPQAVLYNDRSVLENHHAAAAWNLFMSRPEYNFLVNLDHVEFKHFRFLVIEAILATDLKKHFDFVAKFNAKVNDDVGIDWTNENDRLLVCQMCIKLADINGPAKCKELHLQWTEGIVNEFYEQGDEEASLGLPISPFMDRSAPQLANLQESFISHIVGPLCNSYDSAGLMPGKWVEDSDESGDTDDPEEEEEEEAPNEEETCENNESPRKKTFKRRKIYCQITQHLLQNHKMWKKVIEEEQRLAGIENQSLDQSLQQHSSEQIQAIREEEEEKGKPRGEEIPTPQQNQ
Protocol: Apex portion of ventricle of mixed-breed dog (Oriental Yeast) was excised, and washed with 500 ml of ice-cold saline three times. Subsequently, the tissues were cut into about 3 g, and it was frozen by liquid nitrogen, and stored at −80° C. To about 1 g of this tissue sample was added 10 ml of an ice-cold homogenization buffer II, and the resultant mixture was homogenized by Polytron homogenizer for 3 minutes. The homogenate was centrifuged at 8000 rpm, at 4° C. for 20 minutes, and the obtained supernatant was further centrifuged by an ultracentrifuge at 40000 rpm, at 4° C. for 60 minutes. The resultant supernatant was stored at 4° C.
as §1
Subsequently, the eluted fractions were used as an enzyme solution for PDE assay, and cGMP-hydrolyzing activity was measured. Further, cAMP-hydrolyzing activity was measured for respective fractions, in the presence or absence of unlabeled cGMP. […]

PDE4 = experiment: PDE assay, PDE4 enzyme solution from dog lung; type: biochemical, mixed-breed dog
Protocol: These fractions were collected and glycerol was added thereto to become 50%, and the mixture was stored at −20° C.

PDE5 = target: T3, PDE5 (Canis lupus familiaris, UniProt O77746); experiment: PDE assay, PDE5 enzyme solution from canine lung; type: biochemical
T3 construct: These were used as a PDE5 enzyme solution for PDE assay; tissue Oriental Yeast (animals); host or cells: canine lung, soluble fraction, DEAE Sepharose fractions
Protocol: In the same manner as in (1-4) above, the supernatant obtained from the homogenate of canine lung tissue was applied to chromatography under FLPC system, to collect eluted fractions of 2 ml each.
Subsequently, the eluted fractions were used as an enzyme solution for PDE assay, and cGMP-hydrolyzing activity was measured for respective fractions, in the presence or absence of E4021, the PDE5 specific inhibitor.
Further, for examining contamination of PDE1, which is adjacently eluted, cGMP-hydrolyzing PDE activity of the respective fractions were measured in the same assay buffer containing EGTA (final concentration of 1 mM) [or calcium chloride (final concentration of 2 mM) and calmodulin (40 units/ml)].
These fractions were collected and glycerol was added thereto to become 50%, and the mixture was stored at −20° C. These were used as a PDE5 enzyme solution for PDE assay.

Compound: O=C(O)C1CCN(c2nc(NCc3ccc4c(c3)OCO4)c3cc(Cl)ccc3n2)CC1 [Compound E4021, reference compound]
cGMP-hydrolyzing activity of PDE1 containing fractions in the presence of inhibitor (PDE1): not inhibited

Compound: Cc1[nH]c(=O)c(C#N)cc1-c1ccncc1 [milrinone]
PDE activity of PDE3 enzyme solution in the presence of inhibitor (PDE3): inhibited

Continued, values first:

PDE activity of PDE2 enzyme solution in the presence of inhibitor (PDE2): inhibited
Compound: CCCCCC[C@@H]([C@@H](C)O)n1cnc2c(N)ncnc21 (racemic) [EHNA, erythro-9-(2-hydroxy-3-nonyl)adenine, reference compound]

PDE activity of PDE4 enzyme solution in the presence of inhibitor (PDE4): inhibited
Compound: COc1ccc(C2CNC(=O)C2)cc1OC1CCCC1 (centres unmarked) [rolipram, reference compound]

PDE activity of PDE5 enzyme solution in the presence of inhibitor (PDE5): inhibited
Compound: CCCc1nn(C)c2c(=O)[nH]c(-c3cc(S(=O)(=O)N4CCN(C)CC4)ccc3OCC)nc12 [sildenafil, reference compound]

From patent publication US8338420B1, “Treatment of Parkinson's disease and enhancement of dopamine signal using PDE 10 inhibitor” (Mitsubishi Tanabe Pharma Corporation, priority 2002, dated 2012)
